According to US8071605B2, “Piperidine compounds for use in the treatment of bacterial infections” (AstraZeneca AB, priority 2008, dated 2011):

target: S. aureus GyrB ATPase (Staphylococcus aureus, UniProt P0A0K8); assay: S. aureus GyrB ATPase inhibition (ammonium molybdate/malachite green phosphate detection); format: biochemical; settings: compound concentration of 1 μM (unless otherwise noted)
Procedure: E. coli GyrB ATPase Inhibition Activity: Compounds can be tested for inhibition of E. coli GyrB ATPase activity using an ammonium molybdate/malachite green-based phosphate detection assay (Lanzetta, P. A., L. J. Alvarez, P. S. Reinach, and O. A. Candia, 1979, 100: 95-97). Assays can be performed in multiwell plates in 30 μl reactions containing: 50 mM Hepes buffer pH 7.5, 75 mM ammonium acetate, 8.0 mM magnesium chloride, 0.5 mM ethylenediaminetetraacetic acid, 5% glycerol, 1 mM 1,4-Dithio-DL-threitol, 200 nM bovine serum albumin, 1.6 μg/ml sheared salmon sperm DNA, 400 pM E. coli GyrA, 400 pM E. coli GyrB, 250 μM ATP, and compound in dimethylsulfoxide. Reactions can be quenched with 30 μl of ammonium molybdate/malachite green detection reagent containing 1.2 mM malachite green hydrochloride, 8.5 mM ammonium molybdate tetrahydrate, and 1 M hydrochloric acid. Plates can be read in an absorbance plate reader at 650 nm and percent inhibition values are calculated using dimethylsulfoxide (2%)-containing reactions as 0% inhibition and EDTA-containing (2.4 μM) reactions as 100% inhibition controls. An IC50 measurement of compound potency for each compound can be determined from reactions performed in the presence of 10 different compound concentrations. E. coli Topoisomerase IV ATPase Inhibition Activity: Compounds can be tested for inhibition of E. coli topoisomerase IV ATPase activity as described above for E. coli GyrB except the 30 μl reactions contained the following: 20 mM TRIS buffer pH 8, 50 mM ammonium acetate, 8 mM magnesium chloride, 5% glycerol, 5 mM 1,4-Dithio-DL-threitol, 0.005% Brij-35, 5 μg/ml sheared salmon sperm DNA, 500 pM E. coli ParC, 500 pM E. coli ParE, 160 μM ATP, and compound in dimethylsulfoxide. An IC50 measurement of compound potency for each compound can be determined from reactions performed in the presence of 10 different compound concentrations. S. aureus GyrB ATPase Inhibition Activity: Compounds may be tested for inhibition of S. aureus GyrB ATPase activity using an ammonium molybdate/malachite green-based phosphate detection assay (Lanzetta, P. A., L. J. Alvarez, P. S. Reinach, and O. A. Candia, 1979, 100: 95-97). Assays can be performed in multiwell plates in 30 μl reactions containing: 50 mM Hepes buffer pH 7.5, 75 mM ammonium acetate, 8.0 mM magnesium chloride, 0.5 mM ethylenediaminetetraacetic acid, 5% glycerol, 1.0 mM 1,4-Dithio-DL-threitol, 200 nM bovine serum albumin, 1.0 μg/ml sheared salmon sperm DNA, 250 pM E. coli GyrA, 250 pM S. aureus GyrB, 250 μM ATP, and compound in dimethylsulfoxide. Reactions can be quenched with 30 μl of ammonium molybdate/malachite green detection reagent containing 1.2 mM malachite green hydrochloride, 8.5 mM ammonium molybdate tetrahydrate, and 1 M hydrochloric acid. Plates can be read in an absorbance plate reader at 650 nm and percent inhibition values can be calculated using dimethylsulfoxide (2%)-containing reactions as 0% inhibition and EDTA-containing (2.4 μM) reactions as 100% inhibition controls. An IC50 measurement of compound potency for each compound can be determined from reactions performed in the presence of 10 different compound concentrations.
Compounds of the invention were tested in an assay substantially similar to the assay described above for measuring the inhibition of S. aureus GyrB ATPase. Percent inhibition of S. aureus GyrB ATPase at a compound concentration of 1 μM (unless otherwise noted) is disclosed in the following table: […]

Sequence of S. aureus GyrB ATPase (P0AES4 whole entry): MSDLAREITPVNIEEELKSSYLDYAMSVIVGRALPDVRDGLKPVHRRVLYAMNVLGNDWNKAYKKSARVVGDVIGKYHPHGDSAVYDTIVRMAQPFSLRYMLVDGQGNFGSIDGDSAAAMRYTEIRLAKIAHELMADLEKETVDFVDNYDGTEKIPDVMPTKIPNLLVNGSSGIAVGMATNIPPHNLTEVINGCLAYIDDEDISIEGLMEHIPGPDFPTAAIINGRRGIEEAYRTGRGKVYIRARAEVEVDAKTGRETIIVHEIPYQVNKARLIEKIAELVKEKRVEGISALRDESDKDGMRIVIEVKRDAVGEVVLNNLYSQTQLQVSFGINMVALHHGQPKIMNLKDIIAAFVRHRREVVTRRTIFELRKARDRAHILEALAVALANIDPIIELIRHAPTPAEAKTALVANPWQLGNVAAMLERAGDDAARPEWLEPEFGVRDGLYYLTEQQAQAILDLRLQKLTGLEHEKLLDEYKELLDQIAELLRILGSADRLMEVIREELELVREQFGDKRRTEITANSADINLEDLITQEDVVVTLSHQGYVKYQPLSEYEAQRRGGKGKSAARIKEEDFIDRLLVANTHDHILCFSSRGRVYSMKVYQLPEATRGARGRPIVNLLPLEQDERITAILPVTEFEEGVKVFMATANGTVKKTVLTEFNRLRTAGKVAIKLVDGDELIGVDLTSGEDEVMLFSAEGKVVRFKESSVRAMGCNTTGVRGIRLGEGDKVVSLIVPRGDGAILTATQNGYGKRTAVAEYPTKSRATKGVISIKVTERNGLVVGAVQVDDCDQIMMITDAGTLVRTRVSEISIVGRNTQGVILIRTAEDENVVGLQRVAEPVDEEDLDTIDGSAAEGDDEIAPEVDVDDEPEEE
Sequence of S. aureus GyrB ATPase (P0A0K8 whole entry): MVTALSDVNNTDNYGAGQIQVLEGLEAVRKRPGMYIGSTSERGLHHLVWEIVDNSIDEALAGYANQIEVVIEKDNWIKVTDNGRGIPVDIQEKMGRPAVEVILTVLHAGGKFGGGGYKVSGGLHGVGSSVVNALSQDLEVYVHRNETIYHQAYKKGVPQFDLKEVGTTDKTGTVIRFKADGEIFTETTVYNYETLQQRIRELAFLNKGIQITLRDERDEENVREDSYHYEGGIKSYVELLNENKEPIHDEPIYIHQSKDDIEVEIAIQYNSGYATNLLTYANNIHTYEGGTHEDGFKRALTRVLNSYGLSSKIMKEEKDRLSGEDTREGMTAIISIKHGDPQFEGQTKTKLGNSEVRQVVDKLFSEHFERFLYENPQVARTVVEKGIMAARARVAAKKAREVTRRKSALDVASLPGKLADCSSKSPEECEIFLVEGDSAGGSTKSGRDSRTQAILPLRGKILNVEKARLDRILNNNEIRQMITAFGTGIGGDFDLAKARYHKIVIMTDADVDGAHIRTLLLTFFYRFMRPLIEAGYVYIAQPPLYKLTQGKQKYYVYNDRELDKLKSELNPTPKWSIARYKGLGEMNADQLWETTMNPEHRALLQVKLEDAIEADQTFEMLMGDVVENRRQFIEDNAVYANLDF

| SMILES | inhibition at 1 µM [%] |
| --- | --- |
| COCCNc1cnc(-c2nc(N3CC[C@@H](NC(=O)c4[nH]c(C)c(Cl)c4Cl)[C@@H](OC)C3)sc2C(=O)O)cn1 [Example 128] | 110 |
| CCO[C@H]1CN(c2nc(-c3cnccn3)c(C(=O)O)s2)CC[C@H]1NC(=O)c1[nH]c(C)c(Cl)c1C#N [Example 15] | 98 |
| Cc1[nH]c(C(=O)N[C@@H]2CCN(c3nc(-c4cnccn4)c(C(=O)O)s3)C[C@@H]2C)c(C#N)c1Cl [Example 29] | 98 |
| C=CCO[C@H]1CN(c2nc(-c3cnccn3)c(C(=O)O)s2)CC[C@H]1NC(=O)c1[nH]c(C)c(Cl)c1Cl [Example 4] | 97 |
| CO[C@H]1CN(c2nc(-c3cnc(N4CCN(CC5CCCO5)CC4)cn3)c(C(=O)O)s2)CC[C@H]1NC(=O)c1[nH]c(C)c(Cl)c1Cl (stereo partly drawn) [Example 142] | 103 |
| CCO[C@H]1CN(c2nc(-c3cnc(N4CCNCC4)cn3)c(C(=O)O)s2)CC[C@H]1NC(=O)c1[nH]c(C)c(Cl)c1Cl [Example 89] | 110 |
| CO[C@H]1CN(c2nc(-c3cnc(OCCN(C)C)cn3)c(C(=O)O)s2)CC[C@H]1NC(=O)c1[nH]c(C)c(Cl)c1Cl [Example 63] | 104 |
| CCCO[C@H]1CN(c2nc(-c3nccn3CCOC)c(C(=O)O)s2)CC[C@H]1NC(=O)c1[nH]c(C)c(Cl)c1Cl [Example 216, 2-[(3S,4R)-4-{[(3,4-dichloro-5-methyl-1H-pyrrol-2-yl)carbonyl]amino}-3-propoxypiperidin-1-yl]-4-[1-(2-methoxyethyl)-1H-imidazol-2-yl]-1,3-thiazole-5-carboxylic acid] | 109 |
| CCO[C@H]1CN(c2nc(-c3nccn3CCOC)c(C(=O)O)s2)CC[C@H]1NC(=O)c1[nH]c(C)c(Cl)c1Cl [Example 9] | 98 |
| CO[C@H]1CN(c2nc(-c3nccc(N4CCOCC4)n3)c(C(=O)O)s2)CC[C@H]1NC(=O)c1[nH]c(C)c(Cl)c1Cl [Example 190, 2-[(3S,4R)-4-{[(3,4-dichloro-5-methyl-1H-pyrrol-2-yl)carbonyl]amino}-3-methoxypiperidin-1-yl]-4-[4-(morpholin-4-yl)pyrimidin-2-yl]-1,3-thiazole-5-carboxylic acid] | 100 |
| Cc1[nH]c(C(=O)N[C@@H]2CCN(c3nc(-c4cnc(NCCN5CCNC5=O)cn4)c(C(=O)O)s3)C[C@@H]2C)c(Cl)c1Cl [Example 173, 2-[(3S,4R)-4-{[(3,4-dichloro-5-methyl-1H-pyrrol-2-yl)carbonyl]amino}-3-methylpiperidin-1-yl]-4-(5-{[2-(2-oxoimidazolidin-1-yl)ethyl]amino}pyrazin-2-yl)-1,3-thiazole-5-carboxylic acid] | 104 |
| Cc1[nH]c(C(=O)N[C@@H]2CCN(c3nc(-c4cnc(N5CCN(CC(C)C)CC5)cn4)c(C(=O)O)s3)C[C@@H]2C)c(Cl)c1Cl [Example 176, 2-[(3S,4R)-4-{[(3,4-dichloro-5-methyl-1H-pyrrol-2-yl)carbonyl]amino}-3-methylpiperidin-1-yl]-4-{5-[4-(2-methylpropyl)piperazin-1-yl]pyrazin-2-yl}-1,3-thiazole-5-carboxylic acid] | 108 |
| CO[C@H]1CN(c2nc(-c3cnc(N4CCN(CCO)CC4)cn3)c(C(=O)O)s2)CC[C@H]1NC(=O)c1[nH]c(C)c(Cl)c1Cl [Example 141] | 103 |
| CCCO[C@H]1CN(c2nc(-c3cnccn3)c(C(=O)O)s2)CC[C@H]1NC(=O)c1[nH]c(C)c(Cl)c1C#N [Example 211, 2-[(3S,4R)-4-{[(4-chloro-3-cyano-5-methyl-1H-pyrrol-2-yl)carbonyl]amino}-3-propoxypiperidin-1-yl]-4-(pyrazin-2-yl)-1,3-thiazole-5-carboxylic acid] | 107 |
| CO[C@H]1CN(c2nc(-c3cnc(N4CCN(CC(C)C)CC4)cn3)c(C(=O)O)s2)CC[C@H]1NC(=O)c1[nH]c(C)c(Cl)c1Cl [Example 134] | 104 |
| CCO[C@H]1CN(c2nc(-c3ncccc3F)c(C(=O)O)s2)CC[C@H]1NC(=O)c1cc(Cl)c(C)[nH]1 [Example 17] | 106 |
| Cc1[nH]c(C(=O)N[C@@H]2CCN(c3nc(-c4ncnn4C)c(C(=O)O)s3)C[C@@H]2C)cc1Cl [Example 19] | 112 |
| CCO[C@H]1CN(c2nc(-c3cnc(N4CCN(C)CC4)cn3)c(C(=O)O)s2)CC[C@H]1NC(=O)c1[nH]c(C)c(Cl)c1Cl [Example 88] | 107 |
| CCC(CC)N1CCN(c2cnc(-c3nc(N4CC[C@@H](NC(=O)c5[nH]c(C)c(Cl)c5Cl)[C@@H](C)C4)sc3C(=O)O)cn2)CC1 [Example 179, 2-[(3S,4R)-4-{[(3,4-dichloro-5-methyl-1H-pyrrol-2-yl)carbonyl]amino}-3-methylpiperidin-1-yl]-4-{5-[4-(pentan-3-yl)piperazin-1-yl]pyrazin-2-yl}-1,3-thiazole-5-carboxylic acid] | 104 |
| CCN(CC)CCN1CCN(c2cnc(-c3nc(N4CC[C@@H](NC(=O)c5[nH]c(C)c(Cl)c5Cl)[C@@H](C)C4)sc3C(=O)O)cn2)CC1 [Example 180, 2-[(3S,4R)-4-{[(3,4-dichloro-5-methyl-1H-pyrrol-2-yl)carbonyl]amino}-3-methylpiperidin-1-yl]-4-(5-{4-[2-(diethylamino)ethyl]piperazin-1-yl}pyrazin-2-yl)-1,3-thiazole-5-carboxylic acid] | 103 |
| CCO[C@H]1CN(c2nc(-c3cnc(N4CCN(CC5CCCN(C)C5)CC4)cn3)c(C(=O)O)s2)CC[C@H]1NC(=O)c1[nH]c(C)c(Cl)c1Cl (stereo partly drawn) [Example 97] | 112 |
| CCO[C@H]1CN(c2nc(-c3cnc(N4CCN(CC5CCCO5)CC4)cn3)c(C(=O)O)s2)CC[C@H]1NC(=O)c1[nH]c(C)c(Cl)c1Cl (stereo partly drawn) [Example 104] | 105 |
| CCCO[C@H]1CN(c2nc(-c3ncnn3C)c(C(=O)O)s2)CC[C@H]1NC(=O)c1[nH]c(C)c(Cl)c1Cl [Example 215] | 106 |
| Cc1[nH]c(C(=O)N[C@@H]2CCN(c3nc(-c4cnc(N5CCNCC5)cn4)c(C(=O)O)s3)C[C@@H]2C)c(Cl)c1Cl [Example 168, 2-[(3S,4R)-4-{[(3,4-dichloro-5-methyl-1H-pyrrol-2-yl)carbonyl]amino}-3-methylpiperidin-1-yl]-4-[5-(piperazin-1-yl)pyrazin-2-yl]-1,3-thiazole-5-carboxylic acid] | 102 |
| CO[C@H]1CN(c2nc(-c3cnc(OCCC4CCN(C)CC4)cn3)c(C(=O)O)s2)CC[C@H]1NC(=O)c1[nH]c(C)c(Cl)c1Cl [Example 65] | 107 |
| CCCO[C@H]1CN(c2nc(-c3cnccn3)c(C(=O)O)s2)CC[C@H]1NC(=O)c1cc(Cl)c(C)[nH]1 [Example 203, 2-[(3S,4R)-4-{[(4-chloro-5-methyl-1H-pyrrol-2-yl)carbonyl]amino}-3-propoxypiperidin-1-yl]-4-(pyrazin-2-yl)-1,3-thiazole-5-carboxylic acid] | 108 |
| Cc1[nH]c(C(=O)N[C@@H]2CCN(c3nc(-c4cnc(N5CCN(CCO)CC5)cn4)c(C(=O)O)s3)C[C@@H]2C)c(Cl)c1Cl [Example 182, 2-[(3S,4R)-4-{[(3,4-dichloro-5-methyl-1H-pyrrol-2-yl)carbonyl]amino}-3-methylpiperidin-1-yl]-4-{5-[4-(2-hydroxyethyl)piperazin-1-yl]pyrazin-2-yl}-1,3-thiazole-5-carboxylic acid] | 117 |
